In US20230348369A1 (Cytokinetics, Inc., priority 2020, published 2023):
Like-named read-outs stand apart in the source and are kept apart here.

Target: human NAMPT (Homo sapiens, UniProt P43490)
Test: Human recombinant enzyme assay (NMN fluorescence biochemical assay, activation of NAMPT)
Procedure, shortened: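 Activation of recombinant human NAMPT (6 nM) with 2.5 mM ATP, 20 μM PRPP and 150 μM nicotinamide in 50 mM HEPES pH 7.2, 1 mM DTT, 1 mM CHAPS, 50 mM NaCl, 100 mM MgCl2; 60 min, ambient temperature. NMN formed was derivatized with acetophenone/KOH/formic acid, fluorescence read at 355/460 nm after 40 min.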

[1] = Table A, human recombinant NAMPT, NMN formation, 60 min
[2] = Table A, human recombinant NAMPT, NMN formation, 60 min, read-out: EC50 Human

Sequence of human NAMPT (P43490 whole entry): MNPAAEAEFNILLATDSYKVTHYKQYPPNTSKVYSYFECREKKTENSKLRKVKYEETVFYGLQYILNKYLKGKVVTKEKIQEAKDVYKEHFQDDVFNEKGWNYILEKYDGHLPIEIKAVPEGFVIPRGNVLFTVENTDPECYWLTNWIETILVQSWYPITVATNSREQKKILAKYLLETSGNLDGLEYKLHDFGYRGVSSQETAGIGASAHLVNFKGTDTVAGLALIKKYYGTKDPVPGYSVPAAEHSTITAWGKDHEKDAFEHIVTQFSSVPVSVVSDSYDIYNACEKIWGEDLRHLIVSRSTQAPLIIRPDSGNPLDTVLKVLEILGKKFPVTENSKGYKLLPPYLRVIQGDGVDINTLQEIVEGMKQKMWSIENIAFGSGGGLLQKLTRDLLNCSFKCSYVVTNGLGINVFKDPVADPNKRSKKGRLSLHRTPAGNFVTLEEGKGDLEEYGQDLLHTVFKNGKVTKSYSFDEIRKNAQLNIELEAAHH

Compound: CC(C)(C(=O)N1CC2(CC(NC(=O)NCc3ccc(Cl)cc3)C2)C1)c1ccccc1 [Compound 221, 1-(4-chlorobenzyl)-3-(2-(2-methyl-2-phenylpropanoyl)-2-azaspiro[3.3]heptan-6-yl)urea]
- EC50: 4.6 µM
- AC1.4 Human [1]: 1.1 µM

Compound: NC(=O)c1ccc(CNC(=O)NC2CC3(C2)CN(C(=O)c2cccc(N4CCCC4)c2)C3)cc1 [Compound 222, 4-((3-(2-(3-(pyrrolidin-1-yl)benzoyl)-2-azaspiro[3.3]heptan-6-yl)ureido)methyl)benzamide]
- AC1.4 Human [1]: 0.2 µM
- EC50 [2]: 28.6 µM

Compound: NC(=O)c1ccc(CNC(=O)NC2CC3(C2)CN(C(=O)c2cncc(N4CCCC4)c2)C3)cc1 [Compound 223, 4-((3-(2-(5-(pyrrolidin-1-yl)nicotinoyl)-2-azaspiro[3.3]heptan-6-yl)ureido)methyl)benzamide]
- AC1.4 Human [1]: 0.2 µM
- EC50 [2]: 38.5 µM

Compound: NC(=O)c1ccc(CNC(=O)NC2CC3(C2)CN(C(=O)c2ccc(Cl)cc2)C3)cc1 [Compound 224, 4-((3-(2-(4-chlorobenzoyl)-2-azaspiro[3.3]heptan-6-yl)ureido)methyl)benzamide]
- AC1.4 Human [1]: 0.6 µM
- EC50 [2]: 47.5 µM

Compound: Cc1ccc(C(=O)N2CC3(CC(NC(=O)NCc4ccc(C(N)=O)cc4)C3)C2)cn1 [Compound 225, 4-((3-(2-(6-methylnicotinoyl)-2-azaspiro[3.3]heptan-6-yl)ureido)methyl)benzamide]
- AC1.4 Human [1]: 2.0 µM
- EC50 [2]: 50.8 µM

Compound: Cc1cc(C(=O)N2CC3(CC(NC(=O)NCc4ccc(C(N)=O)cc4)C3)C2)ccn1 [Compound 226, 4-((3-(2-(2-methylisonicotinoyl)-2-azaspiro[3.3]heptan-6-yl)ureido)methyl)benzamide]
- AC1.4 Human [1]: 2.9 µM
- EC50 [2]: 31.4 µM

Compound: Cc1ccc(C(=O)N2CC3(CC(NC(=O)NCc4cn[nH]c4)C3)C2)cc1 [Compound 227, 1-((1H-pyrazol-4-yl)methyl)-3-(2-(4-methylbenzoyl)-2-azaspiro[3.3]heptan-6-yl)urea]
- AC1.4 Human [1]: 2.0 µM
- EC50 [2]: 33.8 µM

Compound: Cc1ccc(C(=O)N2CC3(CC(NC(=O)NCc4cocn4)C3)C2)cc1 [Compound 228, 1-(2-(4-methylbenzoyl)-2-azaspiro[3.3]heptan-6-yl)-3-(oxazol-4-ylmethyl)urea]
- AC1.4 Human [1]: 1.9 µM
- EC50 [2]: 39.2 µM

Compound: COc1ccc(CNC(=O)NC2CC3(C2)CC(C(=O)N2CCN(C)CC2)C3)cc1 (stereo not drawn) [Compound 230, 1-(4-methoxybenzyl)-3-(6-(4-methylpiperazine-1-carbonyl)spiro[3.3]heptan-2-yl)urea]
- AC1.4 Human [1]: 1.8 µM
- EC50 [2]: 30.9 µM

Compound: COC(=O)N1CCN(C(=O)C2CC3(CC(NC(=O)NCc4ccc(OC)cc4)C3)C2)CC1 (stereo not drawn) [Compound 231, methyl 4-(6-(3-(4-methoxybenzyl)ureido)spiro[3.3]heptane-2-carbonyl)piperazine-1-carboxylate]
- EC50: 7.8 µM
- AC1.4 Human [1]: 0.5 µM

Compound: COc1ccc(CNC(=O)NC2CC3(C2)CC(C(=O)N2CCS(=O)(=O)CC2)C3)cc1 (stereo not drawn) [Compound 232, 1-(6-(1,1-dioxoidothiomorpholine-4-carbonyl)spiro[3.3]heptan-2-yl)-3-(4-methoxybenzyl)urea]
- AC1.4 Human [1]: 3.6 µM
- EC50 [2]: 37.8 µM

Compound: COC(=O)N1CCN(C(=O)C2CC3(CC(NC(=O)NCc4ccc(Cl)cc4)C3)C2)CC1 (stereo not drawn) [Compound 233, Methyl 4-(6-(3-(4-chlorobenzyl)ureido)spiro[3.3]heptane-2-carbonyl)piperazine-1-carboxylate]
- AC1.4 Human [1]: 0.9 µM
- EC50 [2]: 1 µM

Compound: CC(C)(O)CN1CCN(C(=O)CC2CC3(C2)CC(NC(=O)NCc2ccc(Cl)cc2)C3)CC1 (stereo not drawn) [Compound 234, 1-(4-chlorobenzyl)-3-(6-(2-(4-(2-hydoxy-2-methylpropyl)piperazin-1-yl)-2-oxoethyl)spiro[3.3]heptan-2-yl)urea]
- AC1.4 Human [1]: 3.7 µM
- EC50 [2]: 8.6 µM

Compound: O=C(NCc1ccc(Cl)cc1)NC1CC2(CC(CC(=O)N3CCC[C@H]3CO)C2)C1 (stereo partly drawn) [Compound 235, (S)-1-(4-chlorobenzyl)-3-(6-(2-(2-(hydroxymethyl)pyrrolidin-1-yl)-2-oxoethyl)spiro[3.3]heptan-2-yl)urea]
- AC1.4 Human [1]: 4.1 µM
- EC50 [2]: 7.5 µM

Compound: O=C(NCc1ccc(Cl)cc1)NC1CC2(CC(CC(=O)N3CCCC3)C2)C1 (stereo not drawn) [Compound 236, 1-(4-chlorobenzyl)-3-(6-(2-oxo-2-(pyrrolidin-1-yl)ethyl)spiro[3.3]heptan-2-yl)urea]
- AC1.4 Human [1]: 3.6 µM
- EC50 [2]: 5.7 µM

Compound: CC(C(=O)N(C)Cc1ccccc1)C1CC2(CC(NC(=O)NCc3ccc(Cl)cc3)C2)C1 (stereo not drawn) [Compound 237, N-benzyl-2-(6-(3-(4-chlorobenzyl)ureido)spiro[3.3]heptan-2-yl)-N-methylpropanamide]
- AC1.4 Human [1]: 2.4 µM
- EC50 [2]: 2.6 µM

Compound: CN1CCN(CC2CC3(C2)CC(NC(=O)NCc2ccc(Cl)cc2)C3)CC1=O (stereo not drawn) [Compound 238, 1-(4-chlorobenzyl)-3-(6-((4-methyl-3-oxopiperazin-1-yl)methyl)spiro[3.3]heptan-2-yl)urea]
- AC1.4 Human [1]: 3.4 µM
- EC50 [2]: 20.3 µM

Compound: O=C(NCc1ccc(Cl)cc1)NC1CC2(CC(CN3CCC[C@@H]3c3cccnc3)C2)C1 (stereo partly drawn) [Compound 239, (R)-1-(4-chlorobenzyl)-3-(6-((2-(pyridin-3-yl)pyrrolidin-1-yl)methyl)spiro[3.3]heptan-2-yl)urea]
- AC1.4 Human [1]: 2.1 µM
- EC50 [2]: 22.5 µM

Compound: Cc1ccc(C(=O)NCC2CC3(C2)CC(NC(=O)NCc2ccc(Cl)cc2)C3)cn1 (stereo not drawn) [Compound 240, N-((6-(3-(4-chlorobenzyl)ureido)spiro[3.3]heptan-2-yl)methyl)-6-methylnicotinamide]
- AC1.4 Human [1]: 0.9 µM
- EC50 [2]: 3 µM

Compound: CC1CCC(=O)N1CC1CC2(C1)CC(NC(=O)NCc1ccc(Cl)cc1)C2 (stereo not drawn) [Compound 241, 1-(4-chlorobenzyl)-3-(6-((2-methyl-5-oxopyrrolidin-1-yl)methyl)spiro[3.3]heptan-2-yl)urea]
- AC1.4 Human [1]: 2.7 µM
- EC50 [2]: 5.7 µM

Compound: O=C(NCc1ccc(Cl)cc1)NC1CC2(CC(Cn3nncc3-c3ccccc3)C2)C1 (stereo not drawn) [Compound 242, 1-(4-chlorobenzyl)-3-(6-((5-phenyl-1H-1,2,3-triazol-1-yl)methyl)spiro[3.3]heptan-2-yl)urea]
- AC1.4 Human [1]: 3.6 µM
- EC50 [2]: 0.8 µM

Compound: O=C(NCc1ccc(Cl)cc1)NC1CC2(CC(CNC(=O)C3CCS(=O)(=O)CC3)C2)C1 (stereo not drawn) [Compound 243, N-((6-(3-(4-chlorobenzyl)ureido)spiro[3.3]heptan-2-yl)methyl)tetrahydro-2H-thiopyran-4-carboxamide 1,1-dioxide]
- AC1.4 Human [1]: 1.5 µM
- EC50 [2]: 4.2 µM

Compound: CC1CCN(CC2CC3(C2)CC(NC(=O)NCc2ccc(Cl)cc2)C3)C1=O (stereo not drawn) [Compound 244, 1-(4-chlorobenzyl)-3-(6-((3-methyl-2-oxopyrrolidin-1-yl)methyl)spiro[3.3]heptan-2-yl)urea]
- AC1.4 Human [1]: 3.4 µM
- EC50 [2]: 7.3 µM

Compound: Cc1cccc(C(=O)NCC2CC3(C2)CC(NC(=O)NCc2ccc(Cl)cc2)C3)n1 (stereo not drawn) [Compound 245, N-((6-(3-(4-chlorobenzyl)ureido)spiro[3.3]heptan-2-yl)methyl)-6-methylpicolinamide]
- EC50: 4.9 µM
- AC1.4 Human [1]: 3.1 µM

Compound: Cc1cc(C(=O)NCC2CC3(C2)CC(NC(=O)NCc2ccc(Cl)cc2)C3)ccn1 (stereo not drawn) [Compound 246, N-((6-(3-(4-chlorobenzyl)ureido)spiro[3.3]heptan-2-yl)methyl)-2-methylisonicotinamide]
- AC1.4 Human [1]: 2.1 µM
- EC50 [2]: 4.2 µM

Compound: O=C(NCc1ccc(Cl)cc1)NC1CC2(CC(CNC(=O)c3cn[nH]c3)C2)C1 (stereo not drawn) [Compound 247, N-((6-(3-(4-chlorobenzyl)ureido)spiro[3.3]heptan-2-yl)methyl)-1H-pyrazole-4-carboxamide]
- AC1.4 Human [1]: 2.8 µM
- EC50 [2]: 7.9 µM

Compound: Cc1ccc(C(=O)N(C)CC2CC3(C2)CC(NC(=O)NCc2ccc(Cl)cc2)C3)cn1 (stereo not drawn) [Compound 248, N-((6-(3-(4-chlorobenzyl)ureido)spiro[3.3]heptan-2-yl)methyl)-N,6-dimethylnicotinamide]
- AC1.4 Human [1]: 5.0 µM
- EC50 [2]: 6.6 µM

Compound: O=C(NCc1ccc(Cl)cc1)NC1CC2(CC(CNC(=O)C3CCOCC3)C2)C1 (stereo not drawn) [Compound 250, N-((6-(3-(4-chlorobenzyl)ureido)spiro[3.3]heptan-2-yl)methyl)tetrahydro-2H-pyran-4-carboxamide]
- AC1.4 Human [1]: 1.8 µM
- EC50 [2]: 7.7 µM

Compound: O=C(NCc1ccc(Cl)cc1)NC1CC2(CC(CNC(=O)C3CCCC3)C2)C1 (stereo not drawn) [Compound 251, N-((6-(3-(4-chlorobenzyl)ureido)spiro[3.3]heptan-2-yl)methyl)cyclopentanecarboxamide]
- AC1.4 Human [1]: 2.6 µM
- EC50 [2]: 6.1 µM

Compound: O=C1CC(C(=O)NCC2CC3(C2)CC(NC(=O)NCc2ccc(Cl)cc2)C3)CCN1 (stereo not drawn) [Compound 252, N-((6-(3-(4-chlorobenzyl)ureido)spiro[3.3]heptan-2-yl)methyl)-2-oxopiperidine-4-carboxamide]
- AC1.4 Human [1]: 2.8 µM
- EC50 [2]: 9.1 µM

Compound: CC(C1CC2(CC(NC(=O)NCc3ccc(Cl)cc3)C2)C1)N1CCN(C)C(=O)C1 (stereo not drawn) [Compound 253, 1-(4-chlorobenzyl)-3-(6-(1-(4-methyl-3-oxopiperazin-1-yl)ethyl)spiro[3.3]heptan-2-yl)urea]
- AC1.4 Human [1]: 3.2 µM
- EC50 [2]: 5.5 µM

Compound: CN1CCN(CC2CC3(C2)CC(NC(=O)NCc2ccc(Cl)cc2)C3)C(c2ccccc2)C1 (stereo not drawn) [Compound 254, 1-(4-chlorobenzyl)-3-(6-((4-methyl-2-phenylpiperazin-1-yl)methyl)spiro[3.3]heptan-2-yl)urea]
- AC1.4 Human [1]: 1.5 µM
- EC50 [2]: 2.3 µM

Compound: Cc1ccc(C(=O)NC(C)C2CC3(CC(NC(=O)NCc4ccc(Cl)cc4)C3)C2)cn1 (stereo not drawn) [Compound 255, N-(1-(6-(3-(4-chlorobenzyl)ureido)spiro[3.3]heptan-2-yl)ethyl)-6-methylnicotinamide]
- AC1.4 Human [1]: 2.5 µM
- EC50 [2]: 6.5 µM
